The subject of data set [1] is Rattus norvegicus. In words: Antiinflammatory activity in Fisher 344 rat assessed as inhibition of carrageenan-induced paw edema at 0.01 mmol/kg, ip after 3.5 hrs. Format: functional. To be noted: Fisher 344, ip. For orientation: Carrageenan injected into the paw causes an acute inflammation.
For data set [2], the system named is Radical scavenging activity. As to the kind of experiment: Antioxidant activity assessed as DPPH free radical scavenging activity at 0.05 mM after 60 mins. Format: functional. (DPPH is a stable violet radical that fades when it is reduced.)
A further data set deals with Glycine max. In words: Inhibition of soybean lipoxygenase assessed as conversion of sodium linoleate to 13-hydroperoxylinoleic acid at 0.1 mM.
For data set [3], the system named is Rattus norvegicus. In words: Toxicity in Fisher 344 rat assessed as gastrointestinal ulcer at 0.01 mmol/kg, ip administered daily once for 4 days measured after 24 hrs final post dose. It counts as organism-based. Particulars: in vivo.
Data set [4] has as its system Rattus norvegicus. As to the kind of experiment: Toxicity in Fisher 344 rat assessed as melena defecation at 0.01 mmol/kg, ip administered daily once for 4 days measured after 24 hrs final post dose. Particulars: in vivo. It counts as organism-based.
The nature of data set [5]: Antioxidant activity against Fe3+/ascorbic acid system generated hydroxyl radicals assessed as inhibition of formaldehyde production at 0.1 mM. It counts as functional. Also on record: scale not given: the % may be the effect or the level left.
For data set [6], the system named is Radical scavenging activity. In words: Antioxidant activity assessed as DPPH free radical scavenging activity at 0.1 mM after 20 mins. Format: functional.
The nature of data set [7]: Toxicity in Fisher 344 rat assessed as mortality at 0.01 mmol/kg, ip administered daily once for 4 days measured after 24 hrs final post dose. To be noted: in vivo, read-out: Activity. Format: organism-based.
The test system of data set [8] is Rattus norvegicus. In words: Toxicity in Fisher 344 rat assessed as body weight change per 100 g of animal at 0.01 mmol/kg, ip administered daily once for 4 days measured after 24 hrs final post dose. Format: organism-based. To be noted: in vivo.
The subject of data set [9] is Radical scavenging activity. As to the kind of experiment: Antioxidant activity assessed as DPPH free radical scavenging activity at 0.1 mM after 60 mins. It counts as functional.
Data set [10] deals with Radical scavenging activity. As to the kind of experiment: Antioxidant activity assessed as DPPH free radical scavenging activity at 0.05 mM after 20 mins. It counts as functional.
Data set [11] is described as follows: Antioxidant activity assessed as superoxide radical scavenging activity at 0.1 mM after 2 mins by nitroblue tetrazolium method. Format: functional.
Data set [12] in a line: Inhibition of soybean lipoxygenase assessed as conversion of sodium linoleate to 13-hydroperoxylinoleic acid. Also on record: species or system Glycine max.

The structures appear in SMILES notation. Calls of active or inactive are those of the source. The rule behind the calls is not given here.

`COC(=O)c1cc(=O)oc2c3c(ccc12)OC(C)(C)C3`: the inhibition in vivo (in general, the share of the control response that was lost under treatment) at 10 µmol/kg with Rattus norvegicus [1] amounted to 65%. Besides, the Activity in data set [2] was 12%; in the data set on Rattus norvegicus [3] it was 0%; in the data set on Rattus norvegicus [4] it was “Toxic”; in [5], 72%; in the data set on Rattus norvegicus [8] it was 2.5 g; in data set [10] it was 11%. Also, in the data set on Glycine max, the inhibition (commonly the relative decrease from the control value, in per cent) was 4%. Besides, the result in [6], in [9] and in data set [11] was inactive. The mortality at 24 h in data set [7] stood at 0%.

As to `Cc1c(C)c2c(c(C)c1O)CCC(C)(C(=O)O)O2` (centres undefined), the Activity in [5] was found to be 88%.

With `O=c1ccc2ccc3c(c2o1)CCCC3`, the inhibition in vivo at 10 µmol/kg with Rattus norvegicus [1] amounted to 54%. For the same compound, the Activity in [2] was 15%; in [10], 25%; in data set [11], 16%. For the same compound, the inhibition in the data set with Glycine max was 4%. For the same compound, the outcome in [5], in data set [6] and in [9] was inactive.

Turning to `COC(=O)c1cc(=O)oc2ccc3c(c12)CCCC3`, in the data set on Rattus norvegicus [1], the inhibition in vivo at 10 µmol/kg turned out to be 34%. The Activity in data set [2] is 17%; in data set [5] it was 53%; in [6] it was 18%; in data set [9], 20%; in data set [10] it was 14%. In addition, the inhibition in the data set with Glycine max worked out at 31%. The result in data set [11] was inactive.

For `COc1ccc2c(c1)c(CC(=O)O)c(C)n2C(=O)c1ccc(Cl)cc1` [INDOMETHACIN], the inhibition in vivo at 10 µmol/kg in the data set with Rattus norvegicus [1] was 47%. Besides, the Activity with Rattus norvegicus [3] is given as 78%; in the data set with Rattus norvegicus [4], “Non-toxic”; in the data set with Rattus norvegicus [8] it was -9 g. The mortality at 24 h in [7] came out at 50%.

In the case of `COC(=O)c1cc(=O)oc2c3c(ccc12)CCCC3`, the inhibition in vivo at 10 µmol/kg in the data set on Rattus norvegicus [1] amounted to 62%. Moreover, the Activity was 31% in data set [2] and 27% in data set [10]. Besides, the result in data set [5], in data set [6], in data set [9] and in data set [11] was inactive. Besides, the IC50 (as a rule, the point on the concentration scale where inhibition reaches its midpoint) in data set [12] was found to be 100 µM.

For the compound `COC(=O)c1cc(=O)oc2cc3c(cc12)OCO3`, in the data set on Rattus norvegicus [1], the inhibition in vivo at 10 µmol/kg was 45.5%. The Activity in data set [2] is 18%; in data set [5] it was 78%; in data set [6], 9%; in [9], 21%; in data set [10], 12%. Moreover, the inhibition in the data set with Glycine max was 0%.

Take `COC(=O)c1cc(=O)oc2cc3c(cc12)CCCC3`: in the data set with Rattus norvegicus [1], the inhibition in vivo at 10 µmol/kg was found to be 43.4%. Further, the Activity turned out to be 21% in data set [2]; 74% in data set [5]; 12% in data set [6]; 25% in [9]; 12% in [10]; 100% in data set [11]. Further, in the data set on Glycine max, the inhibition is 78%.

Take `COC(=O)c1cc(=O)oc2cc3c(cc12)CCC3`: the Activity is 22% in [2]; 64% in data set [5]; 14% in [6]; 27% in data set [9]; 19% in data set [10]. The inhibition in the data set on Glycine max turned out to be 10%.

In the case of `O=C(O)/C=C/c1ccc(O)c(O)c1` [CAFFEIC ACID], the IC50 in data set [12] came out at 600 µM. Also, the Activity in data set [11] amounted to 46%.

Turning to `CC(Cc1ccc(O)c(O)c1)C(C)Cc1ccc(O)c(O)c1` (centres undefined), the Activity in [2] was 81%; in data set [6], 65%; in [9], 83%; in data set [10], 63%.
